Assay results from patent publication US20020077291A1, “Method of treatment of tumors using transforming growth factor-alpha” (priority 2000, published 2002).

What was measured:
[1] = tested on: human epidermal cancer cell tumor (A-431); assay: Effect of TGF-α and cisplatin on tumor growth in the A431 human epidermal cancer MetaMouse model; assay type: in vivo, nude mice; conditions: FIGS. 1 and 3; for tumor growth (mean tumor volume): A431 tumor orthotopically implanted in nude mice, cisplatinum 10 mg/kg days 3, 9 (20), TGF-alpha 50 ug/kg days 3-7, 9-13 (20-24), 26 days; for tumor growth inhibition compared with cisplatinum treatment: TGF-alpha alone 50 ug/kg vs cisplatinum 10 mg/kg, A431 model
Procedure: (§1) Using a nude mouse model and human epidermal cancer cell tumor (A-431), having 10^7 or greater EGF receptors, the inventors investigated whether TGF-alpha would promote tumor growth. In a parallel experiment, the tumor was treated with a chemotherapeutic agent, cisplatinum. […] In a further parallel experiment, the inventors investigated whether TGF-alpha would directly influence the survival of the tumor. […] Five mice in three of the four groups were sacrificed at this time. […] Phase 3 began on day 20.
The study consisted of four groups of nude mice:
1. Group A—control (15 animals); this group was implanted with tumor and treated only with placebo (according to TGF-injection schedule).
2. Group B—TGF-controls (10 animals); this group was implanted with tumor and received only TGF-injection (according to TGF-injection schedule).
(§2) PHASE 1 :On day 1 all animals were orthotopically implanted with tumor in their breast fat flaps (2-3 tumor tissue specimens per animal). On day 3 in the morning the tumor was measured in all animals. Then animals from group B and D received the first injection of TGF-alpha, animals from group A and C received placebo. Six hours later animals from group C and D received cisplatin injection.
(§3) TGF-alpha was injected at a concentration of 1 microgram per mouse (assuming mouse weighs 20 gram) or 50 microgram per kg.
On day 4, day 5, day 6 and day 7 animals from group B and D received additional TGF-alpha injections spaced 24 hours from the first administration; at the same time, animals from group A and C received placebo.
On day 6 the tumor load in all animals was measured again.
On day 8, five animals were randomly selected from group A, C and D for sacrifice. Their tumor load was measured again, their blood drawn and their intestines, kidneys and spleen removed and preserved. The spleen weight was determined at the time of collection.
(§4) Phase 2. […] On day 10, day 11, day 12 and day 13 animals from group B and D received additional TGF-alpha injections spaced 24 hours from the 9th day administration; animals from group A and C receive placebo at the same time.
On day 12 the tumor load in all animals was measured again. On day 15 […]. their tumor load was measured again, their blood drawn and their intestines, kidneys and spleen removed and preserved. The spleen weight was determined at the time of collection.
Phase 3. On day 20 in the morning the tumor load was measured in all remaining animals according to anticancer procedure. Each group of 10 (groups A, B, C, D) mice were divided into two subgroups: for phase 3A, 5 animals in each group were maintained with no further treatments). […]

[2] = Toxicity (body weight, death) in tumor-bearing nude mice of the A431 model; assay type: in vivo
Excerpt: as §1, with “growth.” for “growth. In a parallel experiment, the tumor was treated with a chemotherapeutic agent, cisplatinum.”
as §2, with “placebo.” for “placebo. Six hours later animals from group C and D received cisplatin injection.”
as §3, §4
Phase 3. On day 20 in the morning the tumor load was measured in all remaining animals according to anticancer procedure. Each group of 10 (groups A, B, C, D) mice were divided into two subgroups: for phase 3A, 5 animals in each group were maintained with no further treatments). For phase 3B, 5 animals from original groups B and D received another injection of TGF-alpha and animals from original group A and C received placebo. […] On day 21, 22, 23 and 24 the five animals from original groups B and D received additional TGF-alpha injections spaced 24 hours from the 20th day of administration; the five selected animals from original group a and c received placebo at the same time. The experiment was terminated on day 26.
body weight—daily for all animals

[3] = tested on: EGF receptor family (e.g., ErbB1 through 4); conditions: background statement; cited from earlier work
[4] = background statement; cited from earlier work

Row | Compound | tumor growth (mean tumor volume) [1] | tumor growth inhibition compared with cisplatinum treatment [1] | tumor growth inhibition compared with cisplatinum treatment ([1]; listed as TGF-α) | protection against death caused by the third treatment of cisplatinum ([2]; TGF-alpha 50 ug/kg days 20-24 with cisplatinum 10 mg/kg day 20, FIG. 4) | protection against toxicity of cisplatinum ([2]; TGF-alpha 50 ug/kg given with cisplatinum 10 mg/kg, FIGS. 2 and 4) | body weight ([2]; mean body weight, daily, 26 days, FIGS. 2 and 4, cisplatin effect at the third treatment (day 20)) | binding affinity [3] | acid and heat stability [4]
1 | N.N.[Cl][Pt][Cl] [cisplatinum, cisplatin, reference compound] | more effective than the control |  |  |  |  |  |  | 
2 | transforming growth factor alpha [TGF-alpha] | inhibited tumor growth | to the same degree as cisplatinum treatment | as effective as cisplatin | protected against the death | protected against toxicity of cisplatinum | no effect on body weight | high affinity in the nanomolar range | acid and heat stable
